According to patent publication US20110263650A1 (priority 2007, published 2011):
≈ marks a conversion by molar mass, not a printed value. Read-outs that look alike come from different tables or passages of the source.

Legend:
[1] = tested on: L929 mouse fibroblasts (DSMZ ACC 2); experiment: Growth inhibition assay (MTT), L929; conditions: for IC50: Mus musculus; for Cytotoxicity / activity in words: Tables 1 and 2, cell line not given
[2] = tested on: KB-3-1 human cervix carcinoma (DSMZ ACC 158); experiment: Growth inhibition assay (MTT), KB-3-1; format: cell-based; conditions: KB 3-1, 120 h, read-out: IC50 KB-3-1
[3] = tested on: SW-480 human colon adenocarcinoma (ATCC CCL-228); experiment: Growth inhibition assay (MTT), SW-480; format: cell-based; conditions: for IC50: SW480, 120 h, read-out: IC50 SW-480; for Activity in SW-480 compared with tubulysin D, in words: colon cancer cell line SW-480
[4] = L929, 120 h, read-out: IC50 L929

| Compound | IC50 [1, 4] | Fold less active than tubulysin D ([1]; cytotoxicity relative to tubulysin D) | IC50 ([2]; Homo sapiens) | IC50 ([3]; Homo sapiens) | Activity in SW-480 compared with tubulysin D, in words [3] | IC50 ([1]; L929, read-out: Cytotoxicity stated in text) | IC50 ([2]; human cervix carcinoma, MTT after 5 days) | IC50 ([3]; human colon adenocarcinoma, MTT after 5 days) | Cytotoxicity / activity in words [1] |
| --- | --- | --- | --- | --- | --- | --- | --- | --- | --- |
| CC[C@H](C)[C@H](NC(=O)[C@H]1CCCCN1C)C(=O)N(C)[C@H](C[C@@H](OC(C)=O)c1nc(C(=O)N[C@@H](Cc2ccccc2)C[C@H](C)C(=O)O)cs1)C(C)C (stereo in doubt) [Analogue 10, 4-({2-[1-Acetoxy-4-methyl-3-(methyl-{3-methyl-2-[(1-methylpiperidine-2-carbonyl)-amino]-pentanoyl}-amino)-pentyl]-thiazole-4-carbonyl}-amino)-2-methyl-5-phenyl-pentanoic acid] | 0.23 ng/mL (≈ 0.316 nM) | 4 fold | 0.13 ng/mL (≈ 0.179 nM) | 0.016 ng/mL (≈ 0.022 nM) | more active than tubulysin D | – | – | – | – |
| CC[C@H](C)[C@H](NC(=O)[C@H]1CCCCN1C)C(=O)N(C)[C@H](C[C@@H](OC(C)=O)c1nc(C(=O)NC)cs1)C(C)C (stereo in doubt) [Analogue 11, acetic acid 4-methyl-1-(4-methylcarbamoyl-thiazol-2-yl)-3-(methyl-{3-methyl-2-[(1-methyl-piperidine-2-carbonyl)-amino]-pentanoyl}-amino)-pentyl ester] | 1.7 ng/mL (≈ 3.08 nM) | – | 1.2 ng/mL (≈ 2.17 nM) | 0.5 ng/mL (≈ 0.906 nM) | – | 2 ng/mL (≈ 3.62 nM) | – | – | – |
| CC[C@H](C)[C@H](NC(=O)[C@H]1CCCCN1C)C(=O)N(COC(=O)CC(C)C)[C@H](C[C@@H](OC(C)=O)c1nc(C(=O)N[C@@H](Cc2ccccc2)C[C@H](C)C(=O)O)cs1)C(C)C [Analogue 1, Tubulysin D, reference compound] | 0.056 ng/mL (≈ 0.0676 nM) | – | – | – | – | – | 0.07 ng/mL (≈ 0.0845 nM) | 0.022 ng/mL (≈ 0.0266 nM) | – |
| CC[C@H](C)[C@H](NC(=O)[C@H]1CCCCN1C)C(=O)N(COC(=O)CC(C)C)[C@H](C[C@@H](OC(C)=O)c1nc(C(=O)NCCc2ccccc2)cs1)C(C)C [Analogue 2, 3-methyl-butyric acid ({1-[2-acetoxy-2-(4-phenethylcarbamoylthiazol-2-yl)-ethyl]-2-methyl-propyl}-{3-methyl-2-[(1-methyl-piperidine-2-carbonyl)-amino]-pentanoyl}-amino)-methyl ester] | 0.24 ng/mL (≈ 0.323 nM) | – | 0.25 ng/mL (≈ 0.337 nM) | 0.3 ng/mL (≈ 0.404 nM) | – | – | – | – | – |
| CC[C@H](C)[C@H](NC(=O)[C@H]1CCCCN1C)C(=O)N(COC(=O)CC(C)C)[C@H](C[C@@H](OC(C)=O)c1nc(C(=O)NCCCC(=O)O)cs1)C(C)C [Analogue 3, 3-Methyl-butyric acid ((1-{2-acetoxy-2-[4-(3-carboxy-propylcarbamoyl)-thiazol-2-yl]-ethyl)-2-methyl-propyl)-{3-methyl-2-[(1-methyl-piperidine-2-carbonyl)-amino]-pentanoyl}-amino)-methyl ester] | 3.5 ng/mL (≈ 4.83 nM) | – | 1.8 ng/mL (≈ 2.49 nM) | 0.91 ng/mL (≈ 1.26 nM) | – | – | – | – | – |
| CC[C@H](C)[C@H](NC(=O)[C@H]1CCCCN1C)C(=O)N(COC(=O)CC(C)C)[C@H](C[C@@H](OC(C)=O)c1nc(C(=O)NC)cs1)C(C)C [Analogue 4, 3-methyl-butyric acid ({1-[2-acetoxy-2-(4-methylcarbamoyl-thiazol-2-yl) -ethyl]-2-methyl-propyl}-{3-methyl-2-[(1-methyl-piperidine-2-carbonyl)-amino]pentanoyl}-amino)-methyl ester] | 0.3 ng/mL (≈ 0.46 nM) | – | 0.22 ng/mL (≈ 0.337 nM) | 0.35 ng/mL (≈ 0.537 nM) | – | – | – | – | maintained good activity |
| CC[C@H](C)[C@H](NC(=O)[C@H]1CCCCN1C)C(=O)N(COC(=O)CC(C)C)[C@H](C[C@@H](OC(C)=O)c1nc(C(=O)O)cs1)C(C)C [Analogue 5, 2-[1-acetoxy-4-methyl-3-((3-methyl-butyryloxymethyl)-{3-methyl-2-[(1-methyl-piperidine-2-carbonyl)-amino]-pentanoyl}-amino)-pentyl]-thiazole-4-carboxylic acid] | 2.2 ng/mL (≈ 3.44 nM) | – | 1.5 ng/mL (≈ 2.35 nM) | 0.35 ng/mL (≈ 0.548 nM) | – | – | – | – | maintained good activity |
| CC[C@H](C)[C@H](NC(=O)CN(C)C)C(=O)N(COC(=O)CC(C)C)[C@H](C[C@@H](OC(C)=O)c1nc(C(=O)N[C@@H](Cc2ccccc2)C[C@H](C)C(=O)O)cs1)C(C)C [Analogue 6, 4-[(2-{1-acetoxy-3-[[2-(2-dimethylamino-cetylamino)-3-methylpentanoyl]-(3-methyl-butyryloxymethyl)-amino]-4-methyl-pentyl}-thiazole-4-carbonyl)-amino]-2-methyl-5-phenyl-pentanoic acid] | 0.04 ng/mL (≈ 0.0508 nM) | – | 0.029 ng/mL (≈ 0.0368 nM) | 0.01 ng/mL (≈ 0.0127 nM) | more active than tubulysin D | – | – | – | essentially equipotent with tubulysin D |
| CC[C@H](C)[C@H](NC(C)=O)C(=O)N(COC(=O)CC(C)C)[C@H](C[C@@H](OC(C)=O)c1nc(C(=O)N[C@@H](Cc2ccccc2)C[C@H](C)C(=O)O)cs1)C(C)C [Analogue 7, 4-[(2-{1-acetoxy-3-[(2-acetylamino-3-methyl-pentanoyl)-(3-methyl-butyryloxymethyl)-amino]-4-methyl-pentyl}-thiazole-4-carbonyl)-amino]-2-methyl-5-phenyl-pentanoic acid] | 120 ng/mL (≈ 161 nM) | – | 80 ng/mL (≈ 107 nM) | 15 ng/mL (≈ 20.1 nM) | – | – | – | – | drastic decrease in activity |
| CC[C@H](C)[C@H](N=[N+]=[N-])C(=O)N(COC(=O)CC(C)C)[C@H](C[C@@H](OC(C)=O)c1nc(C(=O)N[C@@H](Cc2ccccc2)C[C@H](C)C(=O)O)cs1)C(C)C [Analogue 8, 4-[(2-{1-acetoxy-3-[(2-azido-3-metlzyl-pentanoyl)-(3-methylbutyryloxymethyl)-amino]-4-methyl-pentyl}-thiazole-4-carbonyl)-amino]-2-methyl-5-phenyl-pentanoic acid] | 45 ng/mL (≈ 61.7 nM) | – | 40 ng/mL (≈ 54.9 nM) | 8.8 ng/mL (≈ 12.1 nM) | – | – | – | – | drastic decrease in activity |
